For the experiment, the target named is T1, GLP-2R (Rattus norvegicus, UniProt Q9Z0W0).
T1 construct: the described assay enables native GLP-2R characterization by the direct application of GLP-2 to intestinal tissue segments ex vivo; from tissue; host or cells: colon segments of male Sprague-Dawley rats
T1 sequence (Q9Z0W0 1-550): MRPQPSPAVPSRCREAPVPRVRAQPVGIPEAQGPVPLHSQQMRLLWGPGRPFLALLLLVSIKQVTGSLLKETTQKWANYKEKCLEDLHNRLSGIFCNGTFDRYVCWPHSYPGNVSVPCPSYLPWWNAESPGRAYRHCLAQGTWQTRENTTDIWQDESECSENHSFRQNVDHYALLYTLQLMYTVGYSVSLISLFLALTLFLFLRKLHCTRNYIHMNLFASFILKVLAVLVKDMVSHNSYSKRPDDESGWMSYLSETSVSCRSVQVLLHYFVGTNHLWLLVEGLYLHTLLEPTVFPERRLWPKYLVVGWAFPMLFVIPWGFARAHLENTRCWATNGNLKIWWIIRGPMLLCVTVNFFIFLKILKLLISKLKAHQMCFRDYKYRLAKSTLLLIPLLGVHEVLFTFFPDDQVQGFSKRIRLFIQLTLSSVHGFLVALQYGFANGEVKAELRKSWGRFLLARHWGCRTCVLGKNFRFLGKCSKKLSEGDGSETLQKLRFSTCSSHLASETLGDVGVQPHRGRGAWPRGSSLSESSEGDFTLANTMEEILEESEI
Description: Ex vivo organ bath assay of spontaneous contractility of rat colon segments. The note with it: for effect on spontaneous colon contractility: substance alone; for IC50: rat colon segments. The method, then:
Segments of colon from male Sprague Dawley rats were suspended in organ bath chambers containing Krebs' solution and maintained at 37° C. with 95% O2 and 5% CO2. Basal tone, contractility rate and peak height were used to measure the properties of spontaneous and ligand-mediated colonic contractions. Segments were initially loaded to a tension of 2 g and allowed to equilibrate for 60 minutes. During this period, segments were repeatedly washed every 10 minutes. [gly2]GLP-2 (“Teduglutide”, a GLP-2 agonist) and GLP-2 analogues were subsequently incubated with each tissue segment for 5 to 10 minutes. The tissues were allowed to re-equilibrate with repeated washes following each experiment.
Male Sprague-Dawley (SD) rats (Charles River Canada, Quebec), weighing 200-250 g, were used for these studies. The animals were housed on contact bedding and kept with free access to food (Purina Rodent Diet) and water in a facility with regulated temperature and humidity, under an alternate 12-hour light/dark cycle. Animals were acclimatized for 3˜5 days prior to harvesting of tissues.
Rats were euthanized by decapitation. The entire intestine was quickly removed and placed in a Petri dish containing a Sylgard layer and 37° C. Krebs' solution bubbled with 95% O2 and 5% CO2. The Krebs' solution (pH 7.4) contained 118.1 mM NaCl, 25 mM NaHCO3, 4.7 mM KCl, 1.2 mM KH2PO4, 1.2 mM MgSO4.7H2O, 2.5 mM CaCl2.2H2O and 11 mM glucose. The colon was isolated, cleaned of superficial fat and mesentery and sectioned into eight 1-cm long segments. The lumen was cleaned by carefully flushing each segment with Krebs' solution using plastic transfer pipets. Segments were transferred to a separate Petri dish containing fresh Krebs' solution and suture threads were tied to both ends of each segment. Tissues were suspended longitudinally using surgical suture, one end attached to the transducer on the top and the other to the tissue holder at the bottom of 20 ml organ bath chambers containing Krebs' solution, maintained at 37° C. with 95% O2 and 5% CO2. Isometric tensions were continuously measured using calibrated force displacement transducers and data was collected and processed by the MP100WSW system with AcqKnowledge software
Segments of colon were initially loaded to a tension of 2 g and allowed to equilibrate for a 60 min period. During this period, segments were washed with Krebs' solution at 10 minutes intervals. When the tissues obtained regular and stable contraction patterns, GLP-2 agonist response experiments were conducted by the addition of eight concentrations of compound into eight separate organ baths for 5-10 minutes. Routinely, one-hour washes were interspersed between repeat applications of compounds to allow for recovery. The effect of GLP-2(3-33) on GLP-2 agonist analogues were conducted by pre-incubating colon segments with 1 or 10 uM GLP-2(3-33) for 5-10 minutes. Then agonist responses were measured at various concentrations as described above.
Tension was measured by changes in peak height. Data were calculated and expressed as percentage response relative to the basal level (prior to the experiment). Graphs and IC50 determinations were plotted by the percentage response in GraphPad Prism (v 3.02). In order to assess the significance of the effect of GLP-2 and Teduglutide paired t-tests were conducted on the Log [IC50] values.

The values below come from patent US7977061B2, “Ex vivo method for determining potential GLP-2 receptor modulators” (NPS Pharmaceuticals Inc., priority 2005, dated 2011).

“Also recorded” adds a separate entry of the source. Where two headings read alike, the source gives them in different places.

On to “GLP-2(3-33) (DGSFSDEMNTILDNLAARDFINWLIQTKITD; Glucagon-like peptide 2; UniProt P01275 148-178, looked up, fragment) [a GLP-2 antagonist/partial agonist]”, for which the “effect on GLP-2(1-33)-induced inhibition of colon contractility” value (rat colon, 1 μM and 10 μM test substance, agonist GLP-2(1-33)) was “blocked GLP-2(1-33)-induced inhibition of colon contractility; also recorded: blocked the inhibitory effects; also recorded: blocks the effect of GLP-2(1-33) in a concentration-dependent manner”. For the setting “rat colon, 1 μM and 10 μM test substance, agonist teduglutide”, the “effect on teduglutide-induced inhibition of rat colon contractility” value is given as “blocked teduglutide-induced inhibition of colon contractility; also recorded: blocked the inhibitory effects”. The “effect on spontaneous colon contractility” value (rat colon) is reported as “no effect alone”.
For `CC[C@H](C)[C@H](NC(=O)[C@H](Cc1ccccc1)NC(=O)[C@H](CC(=O)O)NC(=O)[C@H](CCCNC(=N)N)NC(=O)[C@H](C)NC(=O)[C@H](C)NC(=O)[C@H](CC(C)C)NC(=O)[C@H](CC(N)=O)NC(=O)[C@H](CC(=O)O)NC(=O)[C@H](CC(C)C)NC(=O)[C@@H](NC(=O)[C@@H](NC(=O)[C@H](CC(N)=O)NC(=O)[C@H](CCSC)NC(=O)[C@H](CCC(=O)O)NC(=O)[C@H](CC(=O)O)NC(=O)[C@H](CO)NC(=O)[C@H](Cc1ccccc1)NC(=O)[C@H](CO)NC(=O)CNC(=O)[C@H](CC(=O)O)NC(=O)CNC(=O)[C@@H](N)Cc1c[nH]cn1)[C@@H](C)O)[C@@H](C)CC)C(=O)N[C@@H](CC(N)=O)C(=O)N[C@@H](Cc1c[nH]c2ccccc12)C(=O)N[C@@H](CC(C)C)C(=O)N[C@H](C(=O)N[C@@H](CCC(N)=O)C(=O)N[C@H](C(=O)N[C@@H](CCCCN)C(=O)N[C@H](C(=O)N[C@H](C(=O)N[C@@H](CC(=O)O)C(=O)O)[C@@H](C)O)[C@@H](C)CC)[C@@H](C)O)[C@@H](C)CC` [Teduglutide, [gly2]GLP-2], the IC50 was 0.0049 ± 0.0019 µM (agonist alone, read-out: estimated IC50, inhibition of colon contractility); 0.0347 ± 0.0151 µM (pre-incubated with 1 μM GLP-2(3-33), read-out: estimated IC50, inhibition of colon contractility in the presence of GLP-2(3-33)); 0.0599 ± 0.0119 µM (pre-incubated with 10 μM GLP-2(3-33), read-out: estimated IC50, inhibition of colon contractility in the presence of GLP-2(3-33)). For the same compound, for the setting “rat colon”, the “effect on spontaneous colon contractility” value is on record as “inhibited spontaneous colon contractility in a concentration-dependent manner”.
On to `CC[C@H](C)[C@H](NC(=O)[C@H](Cc1ccccc1)NC(=O)[C@H](CC(=O)O)NC(=O)[C@H](CCCNC(=N)N)NC(=O)[C@H](C)NC(=O)[C@H](C)NC(=O)[C@H](CC(C)C)NC(=O)[C@H](CC(N)=O)NC(=O)[C@H](CC(=O)O)NC(=O)[C@H](CC(C)C)NC(=O)[C@@H](NC(=O)[C@@H](NC(=O)[C@H](CC(N)=O)NC(=O)[C@H](CCSC)NC(=O)[C@H](CCC(=O)O)NC(=O)[C@H](CC(=O)O)NC(=O)[C@H](CO)NC(=O)[C@H](Cc1ccccc1)NC(=O)[C@H](CO)NC(=O)CNC(=O)[C@H](CC(=O)O)NC(=O)[C@H](C)NC(=O)[C@@H](N)Cc1c[nH]cn1)[C@@H](C)O)[C@@H](C)CC)C(=O)N[C@@H](CC(N)=O)C(=O)N[C@@H](Cc1c[nH]c2ccccc12)C(=O)N[C@@H](CC(C)C)C(=O)N[C@H](C(=O)N[C@@H](CCC(N)=O)C(=O)N[C@H](C(=O)N[C@@H](CCCCN)C(=O)N[C@H](C(=O)N[C@H](C(=O)N[C@@H](CC(=O)O)C(=O)O)[C@@H](C)O)[C@@H](C)CC)[C@@H](C)O)[C@@H](C)CC` [GLP-2(1-33)], for which the “effect on spontaneous colon contractility” value (rat colon) is given as “inhibits spontaneous colon contractility in a concentration-dependent manner”.
